Laboratory results from patent US20030225003A1, “Antimicrobial therapeutic compositions for oral and topical use” (priority 2002, published 2003).
“Also recorded” adds a separate entry of the source.

What was measured:
[1] = cited from earlier work
diarrhea = test: Effect of menthocarvol capsules on patients with diarrhea; assay type: in vivo, human; conditions: for time to complete recovery: with oral rehydration
Protocol: (§1) In one embodiment menthocarvol was made by reacting carvacrol with hydrogen under a nitrogen atmosphere in the presence of platinum, as a catalyst, to form menthocarvol. The menthocarvol was administered orally as capsules and topically as ointments to human volunteers to establish that the preliminary preferred formulation functioned to cure specific disease conditions.
Four human subjects were selected for this study with menthocarvol. In this study, the diarrhea symptoms were likely, from either acute bacterial infectous causes or food poisoning. The menthocarvol was administered orally in the form of capsules. Each 500 mg capsule contained 35 mg of the active ingredient. The therapy for each subject was usually oral administration of two 500 mg capsules.

periodontal disease = test: Effect of orally applied menthocarvol solution on periodontal disease; assay type: in vivo, human
Protocol: A study on three subjects was performed to test the effectiveness of orally applied ointments containing menthocarvol to treat periodontal disease in humans. The preliminary formulation used was first was a 3% solution of menthocarvol followed by treatment with a 0.6% solution, administered twice a week for three months. The treatment was given with a syringe and applied orally to the affected areas between the teeth at the gum line. […] This phenomenon disappeared in approximately two hours.

chronic fatigue syndrome = test: Effect of menthocarvol (oral capsule or topical ointment) on chronic fatigue; assay type: in vivo, human
Protocol: as §1
The presence of bacteria ([…]), parasites (entamoeba gingivalis, or trichomonas tenax) and/or fungi (Candida, or Aspergillus species) in the mouth, nose, or sinus cavities is often accompanied by a history of generalized malaise, fatigue, and frequent headaches, frequently referred to as general fatigue syndrome. Laboratory testing for pathogens is usually negative. People suffering from fatigue syndrome typically function at a substantially lower level of activity than they were capable of before the onset of fatigue symptoms. Fatigue is not improved by bed rest and may be exacerbated by physical or mental activity. Moreover, the presence of some microorganisms in the stomach (i.e. Helicobacter pylori) and bowels, especially in diverticulas (outpouchings of the intestinal mucosa), is often accompanied by malaise and headache.
In the United States, colonic diverticula occurs in approximately 50% of individuals older than 60 years of age. Treatment with menthocarvol of volunteers suffering from this chronic fatigue syndrome was conducted. The menthocarvol therapy was administered in an oral dose of a single 250 mg capsule (17.5 mg active ingredient) or 500 mg capsule (35 mg active ingredient). Two of the subjects, who had localized pain in an extremity, were treated topically with menthocarvol in an ointment (3% active ingredient in lanolin oil). A total of six active individuals complaining of fatigue syndrome participated in this study.

[2] = four patients, two 500 mg capsules orally
[3] = six individuals, oral and topical formulations

For `CC1CCC(C(C)C)C(O)C1` (stereo not drawn) [menthol, 1-Methyl-4-isopropyl cyclohexane-3-ol, reference compound], the solubility in lipids [1] is listed as “soluble in lipids”.
For `CC(C)C1CCC(C)C(O)C1` (stereo not drawn) [menthocarvol, hexahydrocarvacrol], the “time to complete recovery” value (diarrhea; Case 3, two 500 mg capsules orally) was 24 h, the “cure of diarrhea, all four patients” value (diarrhea; [2]) was “the diarrhea was cured quickly” and the “unpleasant or adverse side effects” value (diarrhea; [2]) was “None of the patients reported unpleasant or adverse side effects”. For the same compound, the “time to complete recovery” value (diarrhea; single cases, two 500 mg capsules orally) was “three and two”, the “local side effect (tingling sensation)” value (periodontal disease; 0.6% solution) was “This side effect was not observed” and the “infection and observable periodontal disease” value (periodontal disease; 0.6% solution only, same three patients) was “some improvement”. The “local side effect on gums and tongue” value (periodontal disease; 3% solution) was “a temporary tingling sensation on the gums”, the “necrotic effect on the epithelial cells lining the mouth cavity” value (periodontal disease; 3% solution) was “no observable necrotic effect” and the “time until the tingling sensation disappeared” value (periodontal disease; 3% solution) was “approximately two”. For the same compound, the inflammation of gums (periodontal disease; 3% solution applied at the gum line, three patients) was “a marked improvement in the inflammation of their gums was observed”, the “effect on fatigue syndrome symptoms” value (chronic fatigue syndrome; Case 4, oral 500 mg capsule (35 mg active ingredient) after breakfast for five days) was “the fatigue and muscle soreness disappeared” and the “effect on fatigue syndrome symptoms” value (chronic fatigue syndrome; single cases, oral 250 mg capsule (17.5 mg active ingredient) after breakfast for five or ten days) was “the symptoms of malaise and unrefreshing sleep disappeared; also recorded: The sore throat and pain disappeared after five days of treatment; also recorded: the symptoms of fatigue and headache were relieved”. The adverse side effects (chronic fatigue syndrome; single cases, oral 250 mg or 500 mg capsule after breakfast for five days) was “No adverse side effects were reported; also recorded: No adverse side affects were reported”, the “effect on localized pain in an extremity” value (chronic fatigue syndrome; single cases, topical cream, 3% active ingredient in lanolin oil, applied before exercise) was “The signs of leg and foot muscle fatigue disappeared after the tenth treatment; also recorded: The pain and swelling was significantly reduced after six applications” and the “effect on fatigue and pain, all cases” value (chronic fatigue syndrome; [3]) was “positive effects on the fatigue and pain”. The “unpleasant or adverse side effects, all subjects” value (chronic fatigue syndrome; [3]) was “No subjects complained of unpleasant or adverse side effects”.
For `Cc1ccc(C(C)C)cc1O` [carvacrol, 5-isopropyl-2-methylphenol], the solubility in lipids [1] is given as “soluble in lipids”.
